Results as given in US7037644B1, “Means and methods for monitoring non-nucleoside reverse transcriptase inhibitor antiretroviral therapy and guiding therapeutic decisions in the treatment of HIV/AIDS” (ViroLogic, Inc., priority 1998, dated 2006).

Legend:
[1] = tested on: RTV-964, patient 98-964 (RT Y181I); test: Phenotypic susceptibility assay (patient RTV); assay type: cell-based, HIV-1; details: patient RTV pool
Description: The resistance test vectors containing a functional luciferase gene cassette were constructed and host cells were transfected with the resistance test vector DNA. The resistant test vectors contained patient-derived reverse transcriptase and protease sequences that were either susceptible or resistant to the antiretroviral agents, such as nucleoside reverse transcriptase inhibitors, non-nucleoside reverse transcriptase inhibitors and protease inhibitors. […] The IC50 values were determined by plotting percent drug inhibition vs. log10 drug concentration.
Host cells were seeded in 10-cm-diameter dishes and were transfected several days after plating with resistance test vector plasmid DNA and the envelope expression vector. […] HIV capsid protein (p24) levels in the harvested cell culture media were determined by an EIA method as described by the manufacturer (SIAC; Frederick, Md.). […] The inhibitory effect of the drug was determined using the following equation: % luciferase inhibition=1−(RLUluc [drug]÷RLUluc)×100 where RLUluc [drug] is the relative light unit of luciferase activity in infected cells in the presence of drug and RLUluc is the Relative Light Unit of luciferase activity in infected cells in the absence of drug. […]

[2] = tested on: Y181 C mutation variant; details: Y181C selected during nevirapine monotherapy; cited from earlier work

Compound: Cc1ccnc2c1NC(=O)c1cccnc1N2C1CC1 [nevirapine]
- decrease in susceptibility (fold, IC50) [1]: 750 fold
- reduction in sensitivity [2]: 100 fold
